These results are taken from PubChem BioAssay (NCI).

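Tested at 5 concentrations; 48 h exposure; 96-well plates; endpoints linearly interpolated, else capped at highest concentration. TGI is the concentration that stops growth completely.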

Some test systems named below: NCI-H460 lung; UACC-62 melanoma; MCF7 breast; SK-MEL-5 melanoma; OVCAR-8 ovarian; SNB-75 CNS; LOX IMVI melanoma; HCT-15 colon; HS 578T breast; MDA-MB-435.
Assay in all cases: NCI tumour cell line growth inhibition, 48 h

For `OCCOCn1nc(-c2ccccc2)nc1-c1cnccn1`, the TGI with NCI-H460 lung, in the test with UACC-62 melanoma, in the test on MCF7 breast, in the test on SK-MEL-5 melanoma, in the test on OVCAR-8 ovarian and in the test with SNB-75 CNS was over 100 µM throughout. Further, the TGI in the test with LOX IMVI melanoma and in the test with HCT-15 colon was over 100 µM throughout.
As to `O=c1[nH]c(=O)n(COCCO)cc1-c1ccccc1`, the TGI with NCI-H460 lung, in the test on UACC-62 melanoma, in the test with HS 578T breast, in the test with MCF7 breast, with SK-MEL-5 melanoma and in the test on OVCAR-8 ovarian was over 100 µM each time. Also, the TGI in the test on LOX IMVI melanoma, with MDA-MB-435 and with HCT-15 colon was over 100 µM throughout.
For `CC1(C)OC2C(CO)OC(/N=C(\NC#N)Oc3ccccc3)C2O1` (centres undefined), the TGI in the test with NCI-H460 lung, with UACC-62 melanoma, in the test with SK-MEL-5 melanoma, with OVCAR-8 ovarian, in the test on SNB-75 CNS and in the test with LOX IMVI melanoma was over 100 µM each time. For the same compound, in the test with HCT-15 colon, the TGI was over 100 µM.
As for `c1ccc(C[P+]2(c3ccccc3)CCCCC2)cc1`, the TGI in the test on NCI-H460 lung was over 100 µM; in the test on UACC-62 melanoma, over 100 µM; in the test on SK-MEL-5 melanoma, 71.9 µM; in the test with OVCAR-8 ovarian, over 100 µM; in the test with SNB-75 CNS, over 100 µM; with LOX IMVI melanoma, over 100 µM. The TGI in the test on HCT-15 colon was over 100 µM.
With `Cn1c(=O)c2[nH]c(Nc3ccccc3)nc2n(C)c1=O`, the TGI in the test on UACC-62 melanoma, in the test on MCF7 breast, in the test on SK-MEL-5 melanoma, with OVCAR-8 ovarian, in the test on SNB-75 CNS and in the test on LOX IMVI melanoma was over 10 µM in each case. Moreover, the TGI in the test with MDA-MB-435 and with HCT-15 colon was over 10 µM in each case.
With `O=C1CCCn2c3ccccc3c3ccnc1c32`, the TGI is over 100 µM in the test on NCI-H460 lung; 98 µM with UACC-62 melanoma; over 100 µM with MCF7 breast; over 100 µM in the test on SK-MEL-5 melanoma; over 100 µM in the test with OVCAR-8 ovarian; over 100 µM with SNB-75 CNS. The TGI in the test on LOX IMVI melanoma and in the test with HCT-15 colon was over 100 µM in each case.
Take `O=C(CSCC(=O)N/N=C/c1ccc(F)cc1)N/N=C/c1ccc(F)cc1`: the TGI in the test on NCI-H460 lung, in the test on UACC-62 melanoma, in the test with HS 578T breast, with MCF7 breast, in the test on SK-MEL-5 melanoma and in the test with OVCAR-8 ovarian was over 100 µM in each case. Moreover, the TGI in the test on SNB-75 CNS and in the test with HCT-15 colon was over 100 µM each time.
Turning to `NC(=O)NC1=NCCC(=O)N1CCc1c[nH]c2ccccc12`, the TGI with NCI-H460 lung was 39.5 µM; in the test with UACC-62 melanoma, 36.9 µM; with HS 578T breast it was 80.1 µM; in the test on SK-MEL-5 melanoma, 34.2 µM; with OVCAR-8 ovarian, 32.2 µM; in the test on SNB-75 CNS, 44.5 µM. Besides, the TGI in the test with LOX IMVI melanoma was 26.8 µM; with MDA-MB-435 it was 41.1 µM; in the test on HCT-15 colon, 73 µM.
`O=C1OS2(OC(=O)c3cccc4cccc2c34)c2ccccc21` (centres undefined): the TGI in the test on HS 578T breast, with MCF7 breast, in the test on SK-MEL-5 melanoma, in the test with OVCAR-8 ovarian, in the test on LOX IMVI melanoma and in the test with MDA-MB-435 was over 100 µM in each case. In addition, in the test with HCT-15 colon, the TGI is over 100 µM.
In the case of `COC(=O)[C@@]12CC3CN(Cc4c1[nH]c1ccccc41)C2CC3=O`, the TGI in the test with NCI-H460 lung, with UACC-62 melanoma, in the test with MCF7 breast, in the test with OVCAR-8 ovarian, with SNB-75 CNS and with LOX IMVI melanoma was over 100 µM each time. In addition, the TGI in the test on MDA-MB-435 and with HCT-15 colon was over 100 µM throughout.
Turning to `C=CCn1c(-c2ccc(N=NNc3ccc(-c4n[nH]c(=S)n4CC=C)cc3)cc2)n[nH]c1=S`, the TGI was over 100 µM with HS 578T breast; over 100 µM in the test on MCF7 breast; 3.79 µM in the test on SK-MEL-5 melanoma; 8.84 µM in the test on OVCAR-8 ovarian; 10.8 µM in the test on SNB-75 CNS; over 100 µM in the test on LOX IMVI melanoma. In addition, the TGI in the test on MDA-MB-435 and in the test with HCT-15 colon was over 100 µM in each case.
Regarding `CSCC[C@@H](NC(=O)[C@H](CC(C)C)NC(=O)C(Cc1cnc[nH]1)NC(=O)CNC(=O)[C@@H](NC(=O)[C@H](C)NC(=O)[C@H](Cc1cn(C=O)c2ccccc12)NC(=O)[C@H](CCC(N)=O)NC(=O)[C@@H](N)CC(N)=O)C(C)C)C(N)=O` (some centres undefined), the TGI in the test on NCI-H460 lung, with UACC-62 melanoma, in the test with MCF7 breast, in the test on SK-MEL-5 melanoma, with OVCAR-8 ovarian and with SNB-75 CNS was over 100 µM each time. For the same compound, the TGI in the test on LOX IMVI melanoma and with HCT-15 colon was over 100 µM throughout.
Regarding `COC12OC3(C4OC41)C(C(=O)O[C@H]3CO[Si](C)(C)C(C)(C)C)C2S(=O)(=O)c1ccccc1` (some centres undefined), the TGI in the test with NCI-H460 lung was over 100 µM; in the test on UACC-62 melanoma it was over 7.52 µM; in the test on HS 578T breast, over 100 µM; in the test on MCF7 breast, over 100 µM; with OVCAR-8 ovarian, over 100 µM; in the test on MDA-MB-435, over 5.11 µM. The same compound came in with a TGI in the test with HCT-15 colon of over 100 µM.
As to `O=C(O)C(C1NCCS1)N1Cc2ccccc2C1` (centres undefined), the TGI in the test on NCI-H460 lung, in the test on UACC-62 melanoma, in the test on MCF7 breast, in the test with SK-MEL-5 melanoma, in the test with OVCAR-8 ovarian and in the test with SNB-75 CNS was over 100 µM throughout. The TGI with LOX IMVI melanoma, in the test on MDA-MB-435 and in the test with HCT-15 colon was over 100 µM in each case.
For `COC(CO[Si](C)(C)N[Si](C)(C)OCC(OC)c1ccccc1)c1ccccc1` (centres undefined), the TGI in the test with NCI-H460 lung, in the test on UACC-62 melanoma, in the test with MCF7 breast, with SK-MEL-5 melanoma, in the test with OVCAR-8 ovarian and in the test with SNB-75 CNS was over 100 µM each time. The TGI in the test with LOX IMVI melanoma, in the test with MDA-MB-435 and in the test on HCT-15 colon was over 100 µM each time.
In the case of `COC(=O)c1ccc2c(c1)CC1(C2)Cc2ccc3c(c2C1)CCC3` (centres undefined), the TGI in the test on UACC-62 melanoma is 40.6 µM; in the test with HS 578T breast, over 100 µM; in the test with MCF7 breast, 81.5 µM; with SK-MEL-5 melanoma, 33.3 µM; in the test with OVCAR-8 ovarian, over 100 µM; in the test on SNB-75 CNS, over 100 µM. Moreover, the TGI in the test with LOX IMVI melanoma was 60.7 µM; in the test on MDA-MB-435, 14.3 µM; in the test on HCT-15 colon, over 100 µM.
